Measured values: patent US20110130380A1, “Heteroaryl Kinase Inhibitors” (priority 2009, published 2011)

Molecular target: Cdk9/cyclinT1 (Homo sapiens, UniProt P50750)
Assay: Cdk9/cyclinT1 IMAP Protocol (fluorescence polarization kinase assay)
Conditions: Cdk9_cyclinT1_IC50, Table V; generated using one of the two Cdk9/cyclinT1 assays (IMAP or Alpha Screen), not stated which; ATP 6 uM

Cdk9/cyclinT1, sequence (P50750 whole entry): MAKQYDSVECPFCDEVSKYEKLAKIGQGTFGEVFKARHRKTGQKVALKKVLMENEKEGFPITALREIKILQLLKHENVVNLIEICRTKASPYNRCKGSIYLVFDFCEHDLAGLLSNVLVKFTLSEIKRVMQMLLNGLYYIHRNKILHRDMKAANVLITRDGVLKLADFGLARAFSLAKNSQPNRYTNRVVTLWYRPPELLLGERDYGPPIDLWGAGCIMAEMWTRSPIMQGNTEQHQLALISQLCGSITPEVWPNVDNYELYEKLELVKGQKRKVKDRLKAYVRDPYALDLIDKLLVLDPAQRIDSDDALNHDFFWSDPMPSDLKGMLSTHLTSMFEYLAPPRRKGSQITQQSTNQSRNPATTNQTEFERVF
Cdk9/cyclinT1, sequence (O60563 whole entry partner): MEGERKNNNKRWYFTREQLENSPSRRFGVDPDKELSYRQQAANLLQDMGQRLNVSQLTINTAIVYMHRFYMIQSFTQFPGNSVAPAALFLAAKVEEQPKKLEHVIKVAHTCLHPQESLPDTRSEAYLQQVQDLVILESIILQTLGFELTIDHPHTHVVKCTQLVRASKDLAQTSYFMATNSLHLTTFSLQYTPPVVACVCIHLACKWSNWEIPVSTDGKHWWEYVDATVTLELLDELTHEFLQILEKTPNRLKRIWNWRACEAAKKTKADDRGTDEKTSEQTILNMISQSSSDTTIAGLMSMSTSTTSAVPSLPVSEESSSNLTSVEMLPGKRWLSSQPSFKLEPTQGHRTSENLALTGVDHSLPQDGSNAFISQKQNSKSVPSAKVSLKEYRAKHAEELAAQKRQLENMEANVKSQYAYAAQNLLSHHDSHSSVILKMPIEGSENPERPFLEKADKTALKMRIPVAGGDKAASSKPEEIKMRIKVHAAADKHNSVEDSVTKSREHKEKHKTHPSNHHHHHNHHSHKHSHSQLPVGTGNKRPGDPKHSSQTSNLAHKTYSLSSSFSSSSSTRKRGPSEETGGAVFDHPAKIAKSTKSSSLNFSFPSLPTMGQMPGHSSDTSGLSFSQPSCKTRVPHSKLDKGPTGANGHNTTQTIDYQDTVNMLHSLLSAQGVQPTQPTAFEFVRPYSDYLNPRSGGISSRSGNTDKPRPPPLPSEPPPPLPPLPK

Compound | IC50 [nM]
O=C(Nc1cc(-c2nc(NCC3CCOCC3)ccc2F)c(Cl)cn1)[C@H]1CNCCO1 [Example 158, (R)-Morpholine-2-carboxylic acid {5′-chloro-3-fluoro-6-[(tetrahydro-pyran-4-ylmethyl)-amino]-[2,4′]bipyridinyl-2′-yl}-amide] | 5
C[C@@H]1CC(CNc2cccc(-c3cc(NC(=O)[C@@H]4CCCNC4)ncc3Cl)n2)C[C@H](C)O1 (stereo partly drawn) [Example 159, (R)-Piperidine-3-carboxylic acid {5′-chloro-6-[((2R,6S)-2,6-dimethyl-tetrahydro-pyran-4-ylmethyl)-amino]-[2,4′]bipyridinyl-2′-yl}-amide] | 1
O=C(Nc1cc(-c2nc(NCC3CCOCC3)ccc2Cl)ccn1)[C@@H]1CCCNC1 [Example 167, (R)-Piperidine-3-carboxylic acid {3-chloro-6-[(tetrahydro-pyran-4-ylmethyl)-amino]-[2,4′]bipyridinyl-2′-yl}-amide] | 4
O=C(Nc1cc(-c2cccc(NCC3CCOCC3)n2)c(Cl)cn1)C1CNCC(F)C1 (stereo not shown) [Example 168, 5-Fluoro-piperidine-3-carboxylic acid {5′-chloro-6-[(tetrahydro-pyran-4-ylmethyl)-amino]-[2,4′]bipyridinyl-2′-yl}-amide] | 6
C[C@@H]1CC(CNc2cccc(-c3cc(NC(=O)[C@H]4CNCCO4)ncc3Cl)n2)C[C@H](C)O1 (stereo partly drawn) [Example 169, (R)-Morpholine-2-carboxylic acid {5′-chloro-6-[((2R,6S)-2,6-dimethyl-tetrahydro-pyran-4-ylmethyl)-amino]-[2,4′]bipyridinyl-2′-yl}-amide] | 16
C[C@@H]1CC(CNc2cccc(-c3cc(NC(=O)[C@@H]4CCNC4)ncc3Cl)n2)C[C@H](C)O1 (stereo partly drawn) [Example 170, (R)-Pyrrolidine-3-carboxylic acid {5′-chloro-6-[((2R,6S)-2,6-dimethyl-tetrahydro-pyran-4-ylmethyl)-amino]-[2,4′]bipyridinyl-2′-yl}-amide] | 1
CO[C@H]1CNC[C@@H]1C(=O)Nc1cc(-c2cccc(NCC3C[C@@H](C)O[C@@H](C)C3)n2)c(Cl)cn1 (stereo partly drawn) [Example 171, (3S,4R)-4-Methoxy-pyrrolidine-3-carboxylic acid {5′-chloro-6-[((2R,6S)-2,6-dimethyl-tetrahydro-pyran-4-ylmethyl)-amino]-[2,4′]bipyridinyl-2′-yl}-amide] | 1
O=C(Nc1cc(-c2cccc(NCC3CCOCC3)n2)c(Cl)cn1)[C@@H]1CNC[C@H](F)C1 [Example 176, (3S,5R)-5-Fluoro-piperidine-3-carboxylic acid {5′-chloro-6-[(tetrahydro-pyran-4-ylmethyl)-amino]-[2,4′]bipyridinyl-2′-yl}-amide] | 23
O=C(Nc1cc(-c2cccc(NCC3CCOCC3)n2)c(Cl)cn1)[C@H]1CNC[C@@H](F)C1 [Example 177, (3R,5S)-5-Fluoro-piperidine-3-carboxylic acid {5′-chloro-6-[(tetrahydro-pyran-4-ylmethyl)-amino]-[2,4′]bipyridinyl-2′-yl}-amide] | 5
O=C(Nc1cc(-c2cccc(NCC3CCOCC3)n2)c(Cl)cn1)[C@@H]1CN[C@H](CF)C1 [Example 178, (3S,5S)-5-Fluoromethyl-pyrrolidine-3-carboxylic acid {5′-chloro-6-[(tetrahydro-pyran-4-ylmethyl)-amino]-[2,4′]bipyridinyl-2′-yl}-amide] | 1
O=C(Nc1cc(-c2cccc(NCC3CCOCC3)n2)c(Cl)cn1)[C@H]1CN[C@@H](CF)C1 [Example 179, (3R,5R)-5-Fluoromethyl-pyrrolidine-3-carboxylic acid {5′-chloro-6-[(tetrahydro-pyran-4-ylmethyl)-amino]-[2,4′]bipyridinyl-2′-yl}-amide] | 7
[2H]C([2H])(Nc1cccc(-c2cc(NC(=O)[C@H]3CNCCO3)ncc2Cl)n1)C1CCOCC1 [Example 180, (R)-Morpholine-2-carboxylic acid {5′-chloro-6-[(tetrahydro-pyran-4-yl(dideuteromethyl))-amino]-[2,4′]bipyridinyl-2′-yl}-amide] | 20
CO[C@H]1CNC[C@@H]1C(=O)Nc1cc(-c2nc(NCC3CCOCC3)c(F)cc2Cl)c(Cl)cn1 [Example 181, (3S,4R)-4-Methoxy-pyrrolidine-3-carboxylic acid {3,5′-dichloro-5-fluoro-6-[(tetrahydro-pyran-4-ylmethyl)-amino]-[2,4′]bipyridinyl-2′-yl}-amide] | 1
COC[C@@H]1C[C@@H](C(=O)Nc2cc(-c3nc(NCC4CCOCC4)ccc3Cl)c(Cl)cn2)CN1 [Example 185, (3R,5S)-5-Methoxymethyl-pyrrolidine-3-carboxylic acid {3,5′-dichloro-6-[(tetrahydro-pyran-4-ylmethyl)-amino]-[2,4′]bipyridinyl-2′-yl}-amide] | 1
COC[C@@H]1C[C@@H](C(=O)Nc2cc(-c3nc(NCC4CCOC(C)(C)C4)ccc3Cl)c(Cl)cn2)CN1 (stereo partly drawn) [Example 186, (3R,5S)-5-Methoxymethyl-pyrrolidine-3-carboxylic acid {3,5′-dichloro-6-[(2,2-dimethyl-tetrahydro-pyran-4-ylmethyl)-amino]-[2,4′]bipyridinyl-2′-yl}-amide] | 1
O=C(Nc1cc(-c2cccc(NCC3CCOCC3)n2)c(Cl)cn1)C1CNCCOC1 (stereo not shown) [Example 187, [1,4]Oxazepane-6-carboxylic acid {5′-chloro-6-[(tetrahydro-pyran-4-ylmethyl)-amino]-[2,4′]bipyridinyl-2′-yl}-amide] | 3

Compound | IC50 [nM]
CC1(C)CC(CNc2cccc(-c3cc(NC(=O)[C@@H]4CCNC4)ncc3Cl)n2)CCO1 (stereo partly drawn) [Example 188, (R)-Pyrrolidine-3-carboxylic acid {5′-chloro-6-[(2,2-dimethyl-tetrahydro-pyran-4-ylmethyl)-amino]-[2,4′]bipyridinyl-2′-yl}-amide] | 1
O=C(Nc1cc(-c2nc(NCC3CCOCC3)ccc2Cl)c(Cl)cn1)C1CNCCOC1 (stereo not shown) [Example 191, [1,4]Oxazepane-6-carboxylic acid {3,5′-dichloro-6-[(tetrahydro-pyran-4-ylmethyl)-amino]-[2,4′]bipyridinyl-2′-yl}-amide] | 1
COC1(CNc2ccc(Cl)c(-c3cc(NC(=O)[C@@H]4CCCNC4)ncc3Cl)n2)CCOCC1 [Example 192, (R)-Piperidine-3-carboxylic acid {3,5′-dichloro-6-[(4-methoxy-tetrahydro-pyran-4-ylmethyl)-amino]-[2,4′]bipyridinyl-2′-yl}-amide] | 1
O=C(Nc1cc(-c2cccc(NCC3CCOCC3)n2)c(Cl)cn1)C1CCCCNC1 (stereo not shown) [Example 193, Azepane-3-carboxylic acid {5′-chloro-6-[(tetrahydro-pyran-4-ylmethyl)-amino]-[2,4′]bipyridinyl-2′-yl}-amide] | 2
O=C(Nc1cc(-c2nc(NCC3CCOCC3)ccc2Cl)c(Cl)cn1)C1CCCCNC1 (stereo not shown) [Example 194, Azepane-3-carboxylic acid {3,5′-dichloro-6-[(tetrahydro-pyran-4-ylmethyl)-amino]-[2,4′]bipyridinyl-2′-yl}-amide] | 1
CC1(C)CCC(C(=O)Nc2cc(-c3cccc(NCC4CCOCC4)n3)ccn2)CN1 (stereo not shown) [Example 195, 6,6-Dimethyl-N-(6-(((tetrahydro-2H-pyran-4-yl)methyl)amino)-2,4′-bipyridin-2′-yl)piperidine-3-carboxamide] | 2
CC1(C)CC(CNc2nc(-c3cc(NC(=O)[C@@H]4CCCNC4)ncc3Cl)ccc2F)CCO1 (stereo partly drawn) [Example 198, (R)-Piperidine-3-carboxylic acid {5′-chloro-6-[(2,2-dimethyl-tetrahydro-pyran-4-ylmethyl)-amino]-5-fluoro-[2,4′]bipyridinyl-2′-yl}-amide] | 1
CN1CCCCC(C(=O)Nc2cc(-c3cccc(NCC4CCOCC4)n3)c(Cl)cn2)C1 (stereo not shown) [Example 199, 1-Methyl-azepane-3-carboxylic acid {5′-chloro-6-[(tetrahydro-pyran-4-ylmethyl)-amino]-[2,4′]bipyridinyl-2′-yl}-amide] | 51
CN1CCCCC(C(=O)Nc2cc(-c3nc(NCC4CCOCC4)ccc3Cl)c(Cl)cn2)C1 (stereo not shown) [Example 200, 1-Methyl-azepane-3-carboxylic acid {3,5′-dichloro-6-[(tetrahydro-pyran-4-ylmethyl)-amino]-[2,4′]bipyridinyl-2′-yl}-amide] | 31
O=C(Nc1cc(-c2ccc(F)c(NCC3CCOCC3)n2)c(Cl)cn1)C1CNCCOC1 (stereo not shown) [Example 201, [1,4]Oxazepane-6-carboxylic acid {5′-chloro-5-fluoro-6-[(tetrahydro-pyran-4-ylmethyl)-amino]-[2,4′]bipyridinyl-2′-yl}-amide] | 1
CC1(C)CC(CNc2cccc(-c3cc(NC(=O)C4CNCCOC4)ncc3Cl)n2)CCO1 (stereo not shown) [Example 202, [1,4]Oxazepane-6-carboxylic acid {5′-chloro-6-[(2,2-dimethyl-tetrahydro-pyran-4-ylmethyl)-amino]-[2,4′]bipyridinyl-2′-yl}-amide] | 2
C[C@@H]1CC(CNc2cccc(-c3cc(NC(=O)C4CNCCOC4)ncc3Cl)n2)C[C@H](C)O1 (stereo partly drawn) [Example 203, [1,4]Oxazepane-6-carboxylic acid {5′-chloro-6-[((2R,6S)-2,6-dimethyl-tetrahydro-pyran-4-ylmethyl)-amino]-[2,4′]bipyridinyl-2′-yl}-amide] | 3
O=C(Nc1cc(-c2nc(NCC3CCOCC3)ccc2F)c(Cl)cn1)C1CNCCOC1 (stereo not shown) [Example 204, [1,4]Oxazepane-6-carboxylic acid {5′-chloro-3-fluoro-6-[(tetrahydro-pyran-4-ylmethyl)-amino]-[2,4′]bipyridinyl-2′-yl}-amide] | 1
O=C(Nc1cc(-c2ccc(F)c(NCC3CCOCC3)n2)c(Cl)cn1)[C@H]1CNCCO1 [Example 205, (R)-Morpholine-2-carboxylic acid {5′-chloro-5-fluoro-6-[(tetrahydro-pyran-4-ylmethyl)-amino]-[2,4′]bipyridinyl-2′-yl}-amide] | 5
CC1(C)CCC(C(=O)Nc2cc(-c3cccc(NCC4CCOCC4)n3)c(Cl)cn2)CN1 (stereo not shown) [Example 206, 6,6-Dimethyl-piperidine-3-carboxylic acid {5′-chloro-6-[(tetrahydro-pyran-4-ylmethyl)-amino]-[2,4′]bipyridinyl-2′-yl}-amide] | 1
